What all share (test): NCI60 five-dose screen
Assay type in all cases: cell-based

For assay [1], the system named is OVCAR-3. The following applies: Homo sapiens; OVCAR-3, Ovarian Cancer. The method, then:
(§1) Since all new conjugates (3a–h) had notable antiproliferative activities on several tumor cell lines in the course of the one-dose screening, they were subjected to a five-dose test. […] J. Mol. Sci. 2025, 26, 11063 10 of 10 S.3. NCI60 Screening A detailed description of the NCI screening procedures can also be found on the website of NCI [39], and in our previous work. S.3.1. One-Dose Screen All candidates were examined at first at a single high dose (10 μM) in the full NCI60 cell panel. The value reported for the one-dose test is growth relative to the no-drug control and relative to the time zero number of cells. This made possible the disclosure of both growth inhibition (numbers between 0 and 100) and lethality (numbers less than 0). For example, a value of 100 means no growth inhibition. A value of 20 would mean 80% growth inhibition. A value of 0 means no net growth over the course of the analysis. A value of −20 would mean 20% lethality. A value of −100 means all cells are dead. S.3.2. […] The human tumor cell lines of the cancer screening panel were grown in RPMI 1640 medium containing 5% fetal bovine serum and 2 mM l-glutamine. Characteristically, cells were injected in 96-well microtiter plates in 0.1 mL at plating densities ranging from 5000 to 40,000 cells/well, depending on the doubling time of individual cell lines. After cell inoculation, the microtiter plates were incubated at 37 °C, 5% carbon dioxide, 95% air, and 100% relative humidity for 24 hours before the addition of tested compounds. After 24 hours, 2 plates of each cell line were fixed in situ with Cl3COOH (TCA), to represent a measurement of the cell population for each cell line at the time of drug addition (tz). Tested compounds were solubilized in DMSO at 400-fold the desired final maximum test concentration and stored frozen before application. In the course of the drug addition, an aliquot of frozen concentrate was thawed and diluted to twice the desired final maximum test concentration with a complete medium containing 50 μg mL−1 gentamicin. Additional four, 10-fold or ½ log serial dilutions were produced to furnish a total of five drug concentrations plus control. Aliquots of 0.1 mL of these different drug dilutions were added to the appropriate microtiter wells already containing 0.1 mL of medium, resulting in the required final drug concentrations. Following drug addition, the plates were incubated at 37 °C, 5% carbon dioxide, 95% air, and 100% relative humidity for an additional 48 hours. For adherent cells, the test was finished by the addition of cold Cl3COOH. Cells were fixed in situ by the addition of 50 μL of cold 50% (w/v) Cl3COOH, and incubated at 4 °C for 1 hour. The supernatant was discarded, and the plates were washed with H2O (5×) and dried in air. Sulforhodamine B (SRB) solution (0.1 mL) at 0.4% (w/v) in 1% CH3COOH was added to each well, and plates were incubated at RT for 10 min. After staining, the unbound dye was removed by washing five times with 1% CH3COOH, and the plates were dried in the air. The bound stain is afterward solubilized with a 10 mM trizma base, and the absorbance is read on an automated plate reader at λ = 515 nm. Utilizing the seven absorbance measurements [time zero (tz), control growth (c), and test growth in the presence of the drug at the five concentration levels (ti)], the percentage growth was determined at each of the drug concentration levels. Growth inhibition (%) was calculated as: [(ti − tz)/(c − tz)] × 100, for concentrations where ti ≥ tz (1) [(ti − tz)/(tz)] × 100, for concentrations where ti < tz. (2) Three dose‒response parameters were calculated as follows. GI50 (growth inhibition of 50%) was determined from Equation (3), which is the drug concentration resulting in a 50% reduction in the net protein increase (as measured by SRB staining) in control cells in the course of the drug incubation. [(ti − tz)/(c − tz)] × 100 = 50 (3)

Assay [2] has as its system DU-145. The conditions noted are these: Homo sapiens; DU-145, Prostate Cancer. The method, then: as §1
The test system of assay [3] is SK-OV-3. The conditions noted are these: Homo sapiens; SK-OV-3, Ovarian Cancer. The method, then:
as §1

Assay [4] has as its system HL-60(TB). The following applies: Homo sapiens, Leukemia. The method, then:
as §1

Assay [5] concerns NCI/ADR-RES. The conditions noted are these: Homo sapiens, Ovarian Cancer. The method, then: as §1
The subject of assay [6] is UACC-257. The conditions noted are these: Homo sapiens; UACC-257, Melanoma. The method, then: as §1
Assay [7] has as its system A549/ATCC. The following applies: Homo sapiens, Non-small-Cell Lung Cancer. The method, then:
as §1

Assay [8] has as its system SW-620. The following applies: Homo sapiens; SW-620, Colon Cancer. The method, then: as §1
In assay [9] the test system is OVCAR-5. The following applies: Homo sapiens; OVCAR-5, Ovarian Cancer. The method, then: as §1
Assay [10] relates to BT-549. The following applies: Homo sapiens; BT-549, Breast Cancer. The method, then:
as §1

Assay [11] has as its system SK-MEL-2. The following applies: Homo sapiens; SK-MEL-2, Melanoma. The method, then: as §1
Assay [12] has as its system K-562. The conditions noted are these: Homo sapiens, K562; K-562, Leukemia. The method, then: as §1
Assay [13] relates to ACHN. The conditions noted are these: Homo sapiens, Renal Cancer. The method, then: as §1
Assay [14] concerns SF-539. The following applies: Homo sapiens; SF-539, CNS Cancer. The method, then: as §1
Assay [15] has as its system HOP-92. The following applies: Homo sapiens; HOP-92, Non-small-Cell Lung Cancer. The method, then:
as §1

Assay [16] has as its system T-47D. The conditions noted are these: Homo sapiens, T47D, Breast Cancer. The method, then:
as §1

In assay [17] the test system is SF-295. The conditions noted are these: Homo sapiens; SF-295, CNS Cancer. The method, then:
as §1

Assay [18] has as its system M14. The following applies: Homo sapiens; M14, Melanoma. The method, then:
as §1

The test system of assay [19] is KM12. The following applies: Homo sapiens; KM12, Colon Cancer. The method, then: as §1
The subject of assay [20] is UO-31. The following applies: Homo sapiens; UO-31, Renal Cancer. The method, then: as §1
In assay [21] the test system is A498. The following applies: Homo sapiens; A498, Renal Cancer. The method, then: as §1
Assay [22] deals with NCI-H460. The following applies: Homo sapiens; NCI-H460, Non-small-Cell Lung Cancer. The method, then: as §1

One may read the GI50 as the concentration that inhibits growth by half. For `Cc1ccccc1[P+](CCCCOc1cc(O)c2c(=O)cc(-c3ccccc3)oc2c1)(c1ccccc1C)c1ccccc1C` [3g], the GI50 turned out to be 216 nM in [1]; 376 nM in assay [2]; 277 nM in [3]; 180 nM in assay [4]; 2140 nM in [5]; 261 nM in [6]. In addition, the 50% growth inhibitory concentration (GI50) in assay [7] came out at 417 nM; in [8] it was 274 nM; in [9], 1720 nM; in assay [10], 291 nM; in [11] it was 194 nM; in [12] it was 279 nM. Besides, the GI50 in assay [13] came out at 569 nM; in assay [14] it was 187 nM; in assay [15], 255 nM; in assay [16] it was 208 nM; in [17], 648 nM; in assay [18], 335 nM. The GI50 in [19] is 280 nM; in assay [20], 1770 nM; in assay [21] it was 462 nM; in assay [22] it was 243 nM.
As for `O=c1cc(-c2ccccc2)oc2cc(OCCCC[P+](c3ccccc3)(c3ccccc3)c3ccccn3)cc(O)c12` [3h], the GI50 is 418 nM in assay [1]; 1220 nM in assay [2]; 1520 nM in assay [3]; 130 nM in assay [4]; 7550 nM in assay [5]; 298 nM in assay [6]. In addition, the GI50 in [7] worked out at 1130 nM; in [8] it was 901 nM; in [9] it was 1440 nM; in assay [10], 293 nM; in assay [11], 758 nM; in assay [12] it was 189 nM. Moreover, the GI50 in assay [13] was 1640 nM; in assay [14], 1060 nM; in assay [15], 346 nM; in [16] it was 259 nM; in assay [17] it was 1360 nM; in assay [18] it was 564 nM. In addition, the GI50 is 523 nM in [19], 1540 nM in assay [20], 1730 nM in [21] and 801 nM in assay [22].

These data come from paper PMC12652692, “Synthesis and In Vitro Anticancer Evaluation of Novel Phosphonium Derivatives of Chrysin” (International Journal of Molecular Sciences, 2025).
